Results as given in patent publication US20090036461A1, “Use of Azabicyclo Hexane Derivatives” (priority 2005, published 2009).

Tests used:
D3 = D3 (Homo sapiens, UniProt P35462); experiment: functional pKi (fpKi) at D3, comparison of separated enantiomers; format: biochemical; settings: difference in fpKi between the two separated enantiomers of the same example
male rats [1] = experiment: sexual incentive motivation test in male rats after acute administration; format: in vivo, Wistar rats; settings: -1 hour; for Time sexual incentive zone (s) / Time social incentive zone / n. of visits social incentive zone / n. of visits to sex. Incentive zone: male rats, n = 9, mean ± s.e.m.
Procedure: (§1) Background: In order to evaluate the effect on natural rewards and to potentially differentiate this approach compared with clinically active gold standards, the effect of the title compound (0.03, 0.3 and 3 mg/kg i.p.; −1 hour, prepared in an analogous way with Example 40) on sexual desire and consummatory performance was evaluated in the rat after acute administration. The effect of the title compound was assessed according to a Latin squared experimental design in male (about 300 g upon arrival) and female (250 g upon arrival) Wistar rats.
(§2) Method—Male rats, sexually experienced were treated with the title compound and submitted 1-hr later to a sexual incentive motivation test (10 minutes) in which male rats were singly exposed to receptive female and active male incentives (Agmo A., Journal of Comparative Psychology. 117(1), March 2003, 3-14). The following parameters were scored: (1) time spent in the incentive zones (close to the incentive cage); (2) number of visits to the zones, and (3) preference score (time spent in the sexual incentive zone/(time in the sexual incentive zone+time in the social incentive zone)). Immediately after the incentive motivation test each subject was transferred to an observation cage in the presence of a receptive female and its copulatory behaviour was then recorded until the end of the 1st post-ejaculatory interval. In the observation cage, the following behavioural parameters were recorded: (1) mount latency (time from the introduction of the female until the first mount with pelvic thrusting); (2) intromission latency (time from the introduction of the female until the first mount with vaginal penetration); (3) ejaculation latency (time from the 1st intromission until ejaculation); (4) post-ejaculatory interval (time from ejaculation until the following intromission); (5) number of mounts, and (6) number of intromission.
(§3) Results—Data are expressed as mean ±s.e.m.

male rats [2] = experiment: copulatory (consummatory) behaviour of male rats with a receptive female; format: in vivo, Wistar rats; settings: -1 hour; for Ejaculation latency / Intromission latency / Mount latency / Post ejaculatory interval / n. of intromissions / n. of mounts: male rats, n = 9, mean ± s.e.m.
Procedure: as §1, §2, §3

[3] = 0.03, 0.3 and 3 mg/kg i.p., result in words

Chain of D3 (P35462 whole entry): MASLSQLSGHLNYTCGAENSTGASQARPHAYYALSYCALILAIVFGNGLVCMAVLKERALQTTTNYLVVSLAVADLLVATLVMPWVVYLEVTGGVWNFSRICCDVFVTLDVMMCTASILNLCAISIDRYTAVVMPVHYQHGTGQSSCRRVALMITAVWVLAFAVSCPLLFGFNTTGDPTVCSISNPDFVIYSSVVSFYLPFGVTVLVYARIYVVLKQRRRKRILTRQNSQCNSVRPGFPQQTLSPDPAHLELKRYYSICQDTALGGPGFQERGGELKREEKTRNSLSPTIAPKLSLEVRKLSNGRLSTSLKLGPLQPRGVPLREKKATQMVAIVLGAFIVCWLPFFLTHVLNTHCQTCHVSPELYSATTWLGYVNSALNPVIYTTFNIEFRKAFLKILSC

fpKi (D3) higher than the other enantiomer (D3): > 1 log-unit
Compound: Cc1ncoc1-c1nnc(SCCCN2C[C@@H]3C[C@]3(c3ccc(C(F)(F)F)cc3F)C2)n1C.Cl (single isomer, unassigned) [Example 40]
effect on sexual desire of male rats exposed to sexual and social stimuli (male rats [1]; [3]): did not affect sexual desire
Time sexual incentive zone (s) (male rats [1]; 0.03 mg/kg i.p.): 367.57 ± 23.53++ s
Time social incentive zone (male rats [1]; 0.03 mg/kg i.p.): 73.69 ± 12.48 s
n. of visits social incentive zone (male rats [1]; 0.03 mg/kg i.p.): 15.33 ± 1.60
n. of visits to sex. Incentive zone (male rats [1]; 0.03 mg/kg i.p.): 23.44 ± 1.95++
Time sexual incentive zone (s) (male rats [1]; 0.3 mg/kg i.p.): 335.12 ± 32.47++ s
Time social incentive zone (male rats [1]; 0.3 mg/kg i.p.): 86.84 ± 13.38 s
n. of visits social incentive zone (male rats [1]; 0.3 mg/kg i.p.): 17.44 ± 2.49
n. of visits to sex. Incentive zone (male rats [1]; 0.3 mg/kg i.p.): 23.89 ± 2.06++
Time sexual incentive zone (s) (male rats [1]; 3 mg/kg i.p.): 355.91 ± 13.70++ s
Time social incentive zone (male rats [1]; 3 mg/kg i.p.): 76.83 ± 10.05 s
n. of visits social incentive zone (male rats [1]; 3 mg/kg i.p.): 14.00 ± 1.85
n. of visits to sex. Incentive zone (male rats [1]; 3 mg/kg i.p.): 21.78 ± 1.72++
effect on ejaculation patterns (male rats [2]; [3]): significant increase in the number of mounts, ejaculation latency and post-ejaculatory interval
Ejaculation latency (male rats [2]; 0.03 mg/kg i.p.): 202.2 ± 19.6 s
Intromission latency (male rats [2]; 0.03 mg/kg i.p.): 6.3 ± 0.8 s
Mount latency (male rats [2]; 0.03 mg/kg i.p.): 4.6 ± 0.8 s
Post ejaculatory interval (male rats [2]; 0.03 mg/kg i.p.): 403.0 ± 37.4 s
n. of intromissions (male rats [2]; 0.03 mg/kg i.p.): 15.8 ± 1.3
n. of mounts (male rats [2]; 0.03 mg/kg i.p.): 3.4 ± 0.7
Ejaculation latency (male rats [2]; 0.3 mg/kg i.p.): 228.3 ± 53.3 s
Intromission latency (male rats [2]; 0.3 mg/kg i.p.): 7.0 ± 1.1 s
Mount latency (male rats [2]; 0.3 mg/kg i.p.): 5.3 ± 0.8 s
Post ejaculatory interval (male rats [2]; 0.3 mg/kg i.p.): 455.3 ± 73.4 s
n. of intromissions (male rats [2]; 0.3 mg/kg i.p.): 15.6 ± 1.5
n. of mounts (male rats [2]; 0.3 mg/kg i.p.): 2.3 ± 0.8
Ejaculation latency (male rats [2]; 3 mg/kg i.p.): 272.8 ± 41.6 s
Intromission latency (male rats [2]; 3 mg/kg i.p.): 8.8 ± 2.0 s
Mount latency (male rats [2]; 3 mg/kg i.p.): 6.4 ± 1.5 s
Post ejaculatory interval (male rats [2]; 3 mg/kg i.p.): 485.1 ± 67.3 s
n. of intromissions (male rats [2]; 3 mg/kg i.p.): 16.8 ± 2.1
n. of mounts (male rats [2]; 3 mg/kg i.p.): 4.8 ± 1.2
